Test system: green mold (P. digitatum)
Test: In vivo efficacy test on inoculated fruit, green mold incidence (FIG. 1)
Parameters: species or system Penicillium digitatum
Conditions: fruit puncture-inoculated with P. digitatum, imazalil at 0.1%
Procedure: In vivo efficacy tests for the formulation of Table 7 were carried out on Fallglo tangerines, pineapples, and Valencia oranges inoculated with Penicillium digtatum using a puncture method, in which the fruit was punctured with the tip of a 1 mm×1 mm probe that had been dipped into the inoculum solution (1×10^6 fungal spores/ml). The fruit was then subject to either a dip treatment procedure or a packingline dip treatment procedure twenty to twenty-four hours after inoculation. The dip treatment procedure involved dipping the inoculated fruit into the composition for one (1) minute. The packingline dip treatment procedure involved treating the fruit with suspensions or wax containing the produce-treatment composition using a non-recovery drip system through a simulated commercial packing line. Fruits were rotated on brush beds and contacted with chemicals for 15 to 20 seconds, and then dried at 50-54° C. for 1-2 minutes. In both procedures, the treated fruit was incubated at 21° C. with 95% relative humidity. FIG. 1 depicts a bar graph reporting the efficacy of the produce-treatment composition of Table 7 to green mold (P. digitatum), and comparing the results to those of a control (distilled water) and 0.1% imazalil. The inventive formulation reduced green-mold incidences to […], relative to untreated produce. […]

C=CCOC(Cn1ccnc1)c1ccc(Cl)cc1Cl (centres unmarked) [imazalil]
green-mold incidences (treated 20-24 h later, incubated at 21° C., 95% RH): 51%
reduction of green-mold incidences (relative to untreated produce): 49%

— patent publication US20070280919A1, “Produce-treatment composition and method for treatment of fresh produce” (priority 2006, published 2007)
